Laboratory results published in patent US8637521B2, “Substituted piperazin-2,5-diones and their use as multifunctional bioactive compounds” (priority 2006, dated 2014).
“And” between values parts separate entries of the source, which are not always exact repeats. Equal values may be shown once.

Columns and labels:
[1] = test system: CFU-S population in the bone marrow; experiment: Spleen colony formation (CFU-S) by bone marrow cells of peptide-treated intact donor mice; format: in vivo, (CBA×C57 B1) F1 mice; settings: for Colony count CFU-8 - S per 10^5 cells M ± M: control 11.2 ± 0.4; for Colony count CFU-8 - S per 10^5 cells M ± m: control 9.9 ± 0.7
Method: The effect of tested substances on intact bone marrow was studied in vivo. […] Two days after administration of preparation, the mice were killed. Bone marrow suspension was prepared and injected intravenously to lethally irradiated mice. The colony forming activity was evaluated at day 8. Test animals were (CBA×C57 B1) F1 mice (30 mice per trial, average from 3 tests).

[2] = test system: Anti-OVA antibody titers; experiment: Adjuvant activity, anti-OVA antibody titers by ELISA (Example 8); format: in vivo, Balb/c mice; settings: for Anti-protein antibody titer (pooled sera) / Stimulation index / Anti-protein antibody titer (for individual sera): Table 7
Method: Adjuvant activity was tested on 11 groups of Balb/c mice (obtained from Stolbovaya Breeding Station). Each group consisted of 7 animals. Three immunizations were performed as follows:
• Group 1—ovalbumin 25 micrograms per animal (Mouse Nos. 1 to 7) • Group 2—ovalbumin 25 micrograms per animal+CFA (Complete Freund's adjuvant) (Mouse Nos. 8 to 14) • Group 3—ovalbumin 25 micrograms per animal+adjuvant of compound 33a 100 micrograms per animal (Mouse Nos. 15 to 21) • Group 4—ovalbumin 25 micrograms per animal+adjuvant of compound 33a 10 micrograms per animal (Mouse Nos. […]) • Group 5—ovalbumin 25 micrograms per animal+adjuvant of compound 33a 1 microgram per animal (Mouse Nos. […]) • Group 6—ovalbumin 25 micrograms per animal+adjuvant of compound 33b 100 micrograms per animal (No. 36 to 42) • Group 7—ovalbumin 25 micrograms per animal+adjuvant of compound 33b 10 micrograms per animal (Mouse Nos. 43 to 49) • Group 8—ovalbumin 25 micrograms per animal+adjuvant of compound 33b 1 microgram per animal (Mouse Nos. 50 to 56) • Group 9—ovalbumin 25 micrograms per animal+adjuvant of compound 17 100 micrograms per animal (Mouse Nos. 57 to 63) • Group 10—ovalbumin 25 micrograms per animal+adjuvant of compound 1710 micrograms per animal (Mouse Nos. 64 to 70) • Group 11—ovalbumin 25 micrograms per animal+adjuvant of compound 171 microgram per animal (Mouse Nos. 71 to 77) Second Immunization:
The same set 14 days after first immunization by injection of 12.5 micrograms of ovalbumin/mouse to mouse nos. 1 to 77.
The same set 28 days after first immunization by injection of 12.5 micrograms of ovalbumin/mouse to mouse nos. 1 to 77.
On day 35 after first immunization, blood samples from each mouse were collected.
OVA (10 micrograms/ml) solution in 0.05 M sodium carbonate buffer (pH 9.5) was added to plate wells, 0.1 ml per well and incubated at 4° C. for 16 hours. The OVA solution was then removed and the plate was washed 4 times with PBS containing 0.05% Tween-20. Such washing was performed after each incubation stage. Serial twofold dilutions of sera (starting from 1:100 or 1:1000) were added to the wells, 0.1 ml per well and incubated at 37° C. for 1 hour followed by incubation (1 hour, 37° C.) with HRP-conjugated goat anti-mouse IgG antibodies (0.1 ml, 1 mg/ml in PBS) and then with a 0.1 mL substrate solution −0.05% H2O2 and 0.05% o-phenylene diamine in 0.05M sodium citrate buffer with a pH of 4.5. The reaction was stopped by adding 100 μl of 12.5% H2SO4. Absorbance was measured at a wavelength of 492 nm using a Multiscan Plus MKII (Flow Laboratories, Great Britain). Significant anti-protein antibody titer (for individual sera) was assessed as the serum dilution produced an absorbance value of more than 0.1 ODU and the minimum exceeds three times the control level. The antibody titer was presented and −log of dilution (FIGS. 2 and 3). The stimulation index for pooled sera was calculated by dividing the test pooled sera dilution producing OD=1 by the dilution of pooled sera from mice immunized without the adjuvant, producing OD=1. The results of the adjuvant activities of cyclo-L-Ala-L-Glu-(L-Trp-OH) (Compound 17), cyclo-L-Lys(N-acetyl-Glycosamine-N-acetyl-muramil)-L-Glu-(L-Trp-OH) (Compound 33a) and cyclo-D-Lys(N-acetyl-Glycosamine-N-acetyl-muramil)-D-Glu-(L-Trp-OH) (Compound 33b) are shown in Table 7 and the adjuvant activities of cyclo [L-Lys(Palmitoyil)-L-Glu(D-Trp-OH)] (Compound 26a) and cyclo [D-Lys(Palmitoyil)-D-Glu(D-Trp-OH)] (Compound 26b) are shown in Table 8 as well as in FIG. 4 which includes the results of the adjuvant activities of cyclo-L-Lys-L-Glu-(L-Trp-OH) (compound 19). It is noted that the peptides of compounds 26a and 26b are soluble in 0.1% NH4OH at a concentration of 1 mg per 1 to 2 ml.

[3] = Table 2, donor treated i/p, colonies day 8
[4] = Table 3, 0.2 microgram per mouse i/p
[5] = Table 3, 0.2 microgram per mouse per os
[6] = Table 3, 2.0 microgram per mouse per os
[7] = Table 3, 20.0 microgram per mouse per os
[8] = Table 3, 200.0 microgram per mouse per os
[9] = 100 μg per animal, no adjuvant 4.5
[10] = 100 μg per animal, no adjuvant = 1
[11] = OVA + adjuvant 1 μg per animal, −log of dilution
[12] = OVA + adjuvant 10 μg per animal, −log of dilution
[13] = OVA + adjuvant 100 μg per animal, titer as −log of dilution, one value per mouse

## γDGlu-DTrp [Thymodepressin, reference compound]
[1]; Table 2, donor treated i/p
  % suppression: 55%
[1]; [3]
  Colony count CFU-8 - S per 10^5 cells M ± M: 6.3 ± 0.6 per 10^5 cells
[1]; [4]
  % suppression: 51%
  Colony count CFU-8 - S per 10^5 cells M ± m: 5.7 ± 0.4 per 10^5 cells
[1]; [5]
  % suppression: 0%
  Colony count CFU-8 - S per 10^5 cells M ± m: 10.2 ± 0.3 per 10^5 cells
[1]; [6]
  % suppression: 33%
  Colony count CFU-8 - S per 10^5 cells M ± m: 8.0 ± 0.5 per 10^5 cells
[1]; [7]
  % suppression: 41%
  Colony count CFU-8 - S per 10^5 cells M ± m: 6.4 ± 0.5 per 10^5 cells
[1]; [8]
  % suppression: 52%
  Colony count CFU-8 - S per 10^5 cells M ± m: 5.1 ± 0.2 per 10^5 cells
[1]; text statement on Table 2
  effect on CFU-S population in the bone marrow of intact mice: decreased the CFU-S population in the bone marrow

## NCCCCC1NC(=O)C(CCC(=O)NC(Cc2c[nH]c3ccccc23)C(=O)O)NC1=O [Compound 19, cyclo-L-Lys-L-Glu-(L-Trp-OH)]
[2]
  adjuvant activity (FIG. 4), doses at which active: active at 100 μg/kg

## O=C(CC[C@H]1NC(=O)[C@@H](Cc2ccccc2)NC1=O)N[C@H](Cc1c[nH]c2ccccc12)C(=O)[O-].[Na+] [cyclo-DPhe-DGlu-(DTrp-ONa)]
[1]; Table 2, donor treated per os
  % suppression: 28%
  Colony count CFU-8 - S per 10^5 cells M ± M: 8.1 ± 0.4 per 10^5 cells
[1]; [5]
  % suppression: 28%
  Colony count CFU-8 - S per 10^5 cells M ± m: 8.1 ± 0.4 per 10^5 cells

## COC(=O)[C@@H](Cc1c[nH]c2ccccc12)NC(=O)C[C@H]1NC(=O)[C@@H](C)NC1=O [Compound 12, Cyclo-D-Ala-D-Asp-(D-Trp-OMe)]
[1]; [5]
  % suppression: 28%
  Colony count CFU-8 - S per 10^5 cells M ± m: 8.4 ± 0.6 per 10^5 cells

## O=C(CCC1NC(=O)C(Cc2ccc(O)cc2)NC1=O)NC(Cc1c[nH]c2ccccc12)C(=O)[O-].[Na+] (centres unmarked) [cyclo-DTyr-DGlu-(DTrp-ONa)]
[1]; [5]
  % suppression: 44%
  Colony count CFU-8 - S per 10^5 cells M ± m: 6.3 ± 0.9 per 10^5 cells

## CC1NC(=O)C(CC(=O)NC(Cc2c[nH]c3ccccc23)C(=O)[O-])NC1=O.[Na+] (centres unmarked) [cyclo-DAla-DAsp-(DTrp-ONa)]
[1]; [5]
  % suppression: 55%
  Colony count CFU-8 - S per 10^5 cells M ± m: 6.8 ± 0.8 per 10^5 cells

## CC(=O)N[C@H]1[C@H](O[C@H]2[C@H](O[C@H](C)C(=O)NCCCC[C@@H]3NC(=O)[C@H](CCC(=O)N[C@@H](Cc4c[nH]c5ccccc45)C(=O)O)NC3=O)[C@@H](NC(C)=O)C(O)O[C@@H]2CO)O[C@H](CO)[C@@H](O)[C@@H]1O (stereo partly drawn) [Compound 33a, cyclo-L-Lys(N-acetyl-Glycosamine-N-acetyl-muramil)-L-Glu-(L-Trp-OH)]
[2]
  adjuvant activity (FIG. 4), doses at which active: active at 100 μg/kg
[2]; 1 μg per animal
  Anti-protein antibody titer (pooled sera): 4.8
  Stimulation index: 2.9
[2]; 10 μg per animal
  Anti-protein antibody titer (pooled sera): 5.1
  Stimulation index: 3.5
[2]; [9]
  Anti-protein antibody titer (pooled sera): 5.5
[2]; [10]
  Stimulation index: 6.8
[2]; [11]
  Anti-protein antibody titer (for individual sera): 5.1 (2×) and 4.2 and 5.4 (3×) and 4.1
[2]; [12]
  Anti-protein antibody titer (for individual sera): 4.4 and 5.7 (4×) and 4.7 and 5.4
[2]; [13]
  Anti-protein antibody titer (for individual sera): 4.8 (2×) and 5.4 and 5.1 (2×) and 6.4 and 5.7

## CC1NC(=O)C(CCC(=O)NC(Cc2c[nH]c3ccccc23)C(=O)[O-])NC1=O.[Na+] (centres unmarked) [cyclo-LAla-LGlu-(DTrp-ONa)]
[1]; Table 2, donor treated i/p
  % suppression: 20%
[1]; [3]
  Colony count CFU-8 - S per 10^5 cells M ± M: 8.8 ± 0.2 per 10^5 cells

## CC(=O)N[C@H]1[C@H](O[C@H]2[C@H](O[C@H](C)C(=O)NCCCC[C@H]3NC(=O)[C@@H](CCC(=O)N[C@@H](Cc4c[nH]c5ccccc45)C(=O)O)NC3=O)[C@@H](NC(C)=O)C(O)O[C@@H]2CO)O[C@H](CO)[C@@H](O)[C@@H]1O (stereo partly drawn) [Compound 33b, cyclo-D-Lys(N-acetyl-Glycosamine-N-acetyl-muramil)-D-Glu-(L-Trp-OH)]
[2]
  adjuvant activity (FIG. 4), doses at which active: not an active compound
[2]; 1 μg per animal
  Anti-protein antibody titer (pooled sera): 5.1
  Stimulation index: 3.5
[2]; 10 μg per animal
  Anti-protein antibody titer (pooled sera): 5.4
  Stimulation index: 4.1
[2]; [9]
  Anti-protein antibody titer (pooled sera): 4.8
[2]; [10]
  Stimulation index: 2.9
[2]; [11]
  Anti-protein antibody titer (for individual sera): 5.2 and 4.8 (4×) and 4.5 and 5.1
[2]; [12]
  Anti-protein antibody titer (for individual sera): 4.8 and 4.5 and 5.2 and 5.1 and 5.4 (2×) and 4.3
[2]; [13]
  Anti-protein antibody titer (for individual sera): 4.8 and 5.4 (3×) and 4.2 and 5.1 (2×)

## O=C(CCC1NC(=O)C(Cc2ccc(O)cc2)NC1=O)NC(Cc1c[nH]c2ccccc12)C(=O)O (centres unmarked) [cyclo-DTyr-DGlu-(DTrp-OH)]
[1]; Table 2, donor treated per os
  % suppression: 44%
  Colony count CFU-8 - S per 10^5 cells M ± M: 6.3 ± 0.9 per 10^5 cells

## C[C@H]1NC(=O)[C@@H](CCC(=O)N[C@H](Cc2c[nH]c3ccccc23)C(=O)[O-])NC1=O.[Na+] [cyclo-DAla-DGlu-(DTrp-ONa)]
[1]; Table 2, donor treated i/p
  % suppression: 70%
[1]; [3]
  Colony count CFU-8 - S per 10^5 cells M ± M: 5.0 ± 0.3 per 10^5 cells
[1]; Table 2, donor treated per os
  % suppression: 58%
  Colony count CFU-8 - S per 10^5 cells M ± M: 6.0 ± 0.7 per 10^5 cells
[1]; [5]
  % suppression: 59%
  Colony count CFU-8 - S per 10^5 cells M ± m: 5.3 ± 0.6 per 10^5 cells

## COC(=O)[C@@H](Cc1c[nH]c2ccccc12)NC(=O)CC[C@H]1NC(=O)[C@@H](C)NC1=O [Compound 1, Cyclo-D-Ala-D-Glu-(D-Trp-OMe)]
[1]; Table 2, donor treated per os
  % suppression: 40%
  Colony count CFU-8 - S per 10^5 cells M ± M: 7.4 ± 0.4 per 10^5 cells
[1]; Table 2, donor treated s/c
  % suppression: 47%
  Colony count CFU-8 - S per 10^5 cells M ± M: 6.8 ± 0.4 per 10^5 cells
[1]; [5]
  % suppression: 42%
  Colony count CFU-8 - S per 10^5 cells M ± m: 6.5 ± 0.5 per 10^5 cells

## C[C@H]1NC(=O)[C@@H](CC(=O)N[C@H](Cc2c[nH]c3ccccc23)C(=O)O)NC1=O [Compound 13, Cyclo-D-Ala-D-Asp-(D-Trp-OH)]
[1]; Table 2, donor treated per os
  % suppression: 26.5%
  Colony count CFU-8 - S per 10^5 cells M ± M: 9.0 ± 0.2 per 10^5 cells
